Target: Human cytomegalovirus protease (assemblin, UL80)
Assay: In vitro inhibitory activity against HCMV (human cytomegalovirus) protease using scintillation proximity assay

Structure (SMILES) | IC50
Cc1nc2nnc(C(c3ccccc3)c3ccccc3)nn2c(=O)c1C [3-Benzhydryl-7,8-dimethyl-pyrimido[1,2-b][1,2,4,5]tetrazin-6-one] | 1700 nM
COc1ccc(-c2nnc3nc(C)c(C)c(=O)n3n2)cc1 [3-(4-Methoxy-phenyl)-7,8-dimethyl-pyrimido[1,2-b][1,2,4,5]tetrazin-6-one] | 500 nM
Cc1nc2nnc(C(C)(C)C)nn2c(=O)c1C [3-tert-Butyl-7,8-dimethyl-pyrimido[1,2-b][1,2,4,5]tetrazin-6-one] | 600 nM
Cc1ccc(-c2nnc3nc(C)c(C)c(=O)n3n2)cc1 [7,8-Dimethyl-3-p-tolyl-pyrimido[1,2-b][1,2,4,5]tetrazin-6-one] | 300 nM
Cc1nc2nncnn2c(=O)c1C [7,8-Dimethyl-pyrimido[1,2-b][1,2,4,5]tetrazin-6-one] | 100 nM
Cc1nc2nnc(-c3ccccc3)nn2c(=O)c1C [7,8-Dimethyl-3-phenyl-pyrimido[1,2-b][1,2,4,5]tetrazin-6-one] | 400 nM
Cc1nnc2nc(C)c(C)c(=O)n2n1 [3,7,8-Trimethyl-pyrimido[1,2-b][1,2,4,5]tetrazin-6-one] | 300 nM
Cc1nc2nnc(-c3ccc([N+](=O)[O-])cc3)nn2c(=O)c1C [7,8-Dimethyl-3-(4-nitro-phenyl)-pyrimido[1,2-b][1,2,4,5]tetrazin-6-one] | 1700 nM

— BindingDB's records for doi:10.1016/s0960-894x(03)00789-3 (Wyeth Research, 2003)
